From patent publication US9751861B2, “N1-(3,3,3-trifluoro-2-hydroxo-2-methylpropionyl)-piperidine derivatives as inhibitors of pyruvate dehydrogenase kinase” (MERCK PATENT GMBH, priority 2013, dated 2017)

How the values were obtained:
PDHK2 = target: T1, PDHK2 (Homo sapiens, UniProt Q15119); assay: Biochemical activity testing of PDHK2: PDC inactivation assay; details: human rec PDHK2, PDC from porcine heart, ATP 5 μM; read-out: IC50 PDHK2 (enzyme assay)
T1 construct: purchased Carna Bioscience
Procedure, shortened: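 Human recombinant PDHK2 (137 nM final) preincubated 30 min at RT with porcine heart PDC (20 mU/ml) and compound in pH 7.0 phosphate buffer, then phosphorylated with 5 μM ATP for 30 min at 37 °C. Residual PDC activity read as NADH fluorescence increase (Ex 340/Em 450) over 45 min; inhibitor-free reaction as full value, 3 mM DCA as zero, IC50 derived.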

human PDHK2 (12-407) = target: T2, human PDHK2 (12-407) (Homo sapiens, UniProt Q15119); assay: Isothermal titration calorimetry (ITC) binding; details: 30° C., pH 7.5
T2 construct: The human PDHK2 (12-407) was produced in E. coli; His-tag (cleaved yes); made in house; host or cells: E. coli
Procedure, shortened: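 Untagged PDHK2 (12-407) from E. coli at 50 μM titrated into 5 μM compound at 30° C in pH 7.5 HEPES/KCl/MgCl2/phosphate buffer, ≤1% DMSO. One-site fit gave KA, ΔH^obs and N after heat-of-dilution correction; protein concentration referenced to a standard inhibitor and compound concentration adjusted to 1:1 stoichiometry.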

PDH-Elalpha (pSer300) = assay: Cellular immunofluorescence assay in HEK293T cells; assay type: cell-based; details: Homo sapiens, HEK-293T, 5 hours incubation, anti-PDH-E1alpha pSer300 immunofluorescence, read-out: IC50 (cell data)
Procedure, shortened: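 HEK293T cells were exposed to compound for 5 hours, then fixed, permeabilised and immunostained for PDH-Elalpha pSer300 with Hoechst counterstain, read by laser scanning cytometry. Percent effect was normalized to a pharmacological inhibitor control and fitted to dose-response curves.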

| Structure (SMILES) | IC50 (PDHK2) [nM] | Kd (human PDHK2 (12-407)) [nM] | IC50 (PDH-Elalpha (pSer300)) [nM] |
| --- | --- | --- | --- |
| Cc1cc(C2CCN(C(=O)[C@@](C)(O)C(F)(F)F)CC2)n(-c2ccc(F)cc2)n1 [Compound A41, (R)-1-{4-[2-(4-Fluoro-phenyl)-5-methyl-2H-pyrazol-3-yl]-piperidin-1-yl}-3,3,3-trifluoro-2-hydroxy-2-methyl-propan-1-one] | < 300 | < 300 | 300 to 3000 |
| C[C@@](O)(C(=O)N1CCC(c2cc(C(F)(F)F)nn2-c2ccc(F)cc2)CC1)C(F)(F)F [Compound A42, (R)-1-{4-[2-(4-Fluoro-phenyl)-5-trifluoromethyl-2H-pyrazol-3-yl]-piperidin-1-yl}-3,3,3-trifluoro-2-hydroxy-2-methyl-propan-1-one] | 300 to 3000 | < 300 | 300 to 3000 |
| C[C@@](O)(C(=O)N1CCC(c2cc(C(F)(F)F)nn2-c2ccccc2)CC1)C(F)(F)F [Compound A43, (R)-1-[4-(2-Phenyl-5-trifluoromethyl-2H-pyrazol-3-yl)-piperidin-1-yl]-3,3,3-trifluoro-2-hydroxy-2-methyl-propan-1-one] | 300 to 3000 | < 300 | 300 to 3000 |
| CC1CN(C(=O)[C@@](C)(O)C(F)(F)F)CCC1c1ccn(-c2ccc(F)cc2)n1 (stereo partly drawn) [Compound A44, (R)-1-{4-[1-(4-Fluoro-phenyl)-1H-pyrazol-3-yl]-3-methyl-piperidin-1-yl}-3,3,3-trifluoro-2-hydroxy-2-methyl-propan-1-one] | 300 to 3000 | < 300 | 300 to 3000 |
| C[C@@H]1CN(C(=O)[C@@](C)(O)C(F)(F)F)CC[C@@H]1c1ccn(-c2ccc(F)cc2)n1 [Compound A46, (R)-3,3,3-Trifluoro-1-{(3S,4S)-4-[1-(4-fluoro-phenyl)-1H-pyrazol-3-yl]-3-methyl-piperidin-1-yl}-2-hydroxy-2-methyl-propan-1-one] | < 300 | < 300 | 300 to 3000 |
| COc1ccc(-n2nccc2C2CCN(C(=O)[C@@](C)(O)C(F)(F)F)CC2)cc1Cl [Compound A48, (R)-3,3,3-Trifluoro-2-hydroxy-1-{4-[2-(3-chloro-4-methoxy-phenyl)-2H-pyrazol-3-yl]-piperidin-1-yl}-2-methyl-propan-1-one] | < 300 | < 300 | 300 to 3000 |
| C[C@@](O)(C(=O)N1CCC(c2ccnn2-c2ccc(OCC(F)(F)F)cc2)CC1)C(F)(F)F [Compound A49, (R)-3,3,3-Trifluoro-2-hydroxy-2-methyl-1-(4-{2-[4-(2,2,2-trifluoro-ethoxy)phenyl]-2H-pyrazol-3-yl}-piperidin-1-yl)-propan-1-one] | < 300 | < 300 | 300 to 3000 |
| COc1ccc(-n2nccc2C2CCN(C(=O)[C@@](C)(O)C(F)(F)F)CC2)cn1 [Compound A53, (R)-3,3,3-Trifluoro-2-hydroxy-1-{4-[2-(6-methoxy-pyridin-3-yl)-2H-pyrazol-3-yl]-piperidin-1-yl}-2-methyl-propan-1-one] | 300 to 3000 | < 300 | 300 to 3000 |
| C[C@@](O)(C(=O)N1CCC(n2c(-c3ccccc3F)n[nH]c2=O)CC1)C(F)(F)F [Compound A54, 5-(2-Fluoro-phenyl)-4-[1-((R)-3,3,3-trifluoro-2-hydroxy-2-methyl-propionyl)piperidin-4-yl]-2,4-dihydro-[1,2,4]triazol-3-one] | 300 to 3000 | 300 to 3000 | 3000 to 50000 |
| C[C@@](O)(C(=O)N1CCC(n2cnnc2-c2ccccc2F)CC1)C(F)(F)F [Compound A55, (R)-3,3,3-Trifluoro-1-{4-[3-(2-fluoro-phenyl)-[1,2,4]triazol-4-yl]-piperidin-1-yl}-2-hydroxy-2-methyl-propan-1-one] | 300 to 3000 | 300 to 3000 | 3000 to 50000 |
| COc1ccc(-n2nncc2C2CCN(C(=O)[C@@](C)(O)C(F)(F)F)CC2)cc1 [Compound A57, (R)-3,3,3-Trifluoro-2-hydroxy-1-{4-[3-(4-methoxy-phenyl)-3H-[1,2,3]triazol-4-yl]-piperidin-1-yl}-2-methyl-propan-1-one] | 300 to 3000 | 300 to 3000 | 3000 to 50000 |
| C[C@@](O)(C(=O)N1CCC(n2ccnc2-c2ccccc2)CC1)C(F)(F)F [Compound A61, (R)-3,3,3-Trifluoro-2-hydroxy-2-methyl-1-[4-(2-phenyl-imidazol-1-yl)-piperidin-1-yl]-propan-1-one] | < 300 | < 300 | 3000 to 50000 |
| C[C@@](O)(C(=O)N1CCC(n2ccnc2-c2ccc(Cl)cc2)CC1)C(F)(F)F [Compound A62, (R)-1-{4-[2-(4-Chloro-phenyl)-imidazol-1-yl]-piperidin-1-yl}-3,3,3-trifluoro-2-hydroxy-2-methyl-propan-1-one] | < 300 | < 300 | 300 to 3000 |
| C[C@@](O)(C(=O)N1CCC(n2cncc2-c2ccccc2)CC1)C(F)(F)F [Compound A63, (2R)-3,3,3-trifluoro-2-hydroxy-2-methyl-1-[4-(5-phenylimidazol-1-yl)-1-piperidyl]propan-1-one] | 300 to 3000 | < 300 | 3000 to 50000 |
| C[C@@](O)(C(=O)N1CCC(n2cncc2-c2ccc(Cl)cc2)CC1)C(F)(F)F [Compound A64, (2R)-1-[4-[5-(4-chlorophenyl)imidazol-1-yl]-1-piperidyl]-3,3,3-trifluoro-2-hydroxy-2-methyl-propan-1-one] | < 300 | < 300 | 300 to 3000 |
| C[C@@](O)(C(=O)N1CCC(c2cncn2-c2ccccc2)CC1)C(F)(F)F [Compound A65, (R)-3,3,3-Trifluoro-2-hydroxy-2-methyl-1-[4-(3-phenyl-3H-imidazol-4-yl)piperidin-1-yl]-propan-1-one] | 300 to 3000 | < 300 | 300 to 3000 |
| C[C@@](O)(C(=O)N1CCC(c2ccnn2CC(F)(F)F)CC1)C(F)(F)F [Compound A77, (R)-3,3,3-Trifluoro-2-hydroxy-2-methyl-1-{4-[2-(2,2,2-trifluoro-ethyl)-2H-pyrazol-3-yl]-piperidin-1-yl}-propan-1-one] | 3000 to 50000 | 300 to 3000 | 3000 to 50000 |
| COCCn1nccc1C1CCN(C(=O)[C@@](C)(O)C(F)(F)F)CC1 [Compound A78, (R)-3,3,3-Trifluoro-2-hydroxy-1-[4-[2-(2-methoxyethyl)-2H-pyrazol-3-yl]-1-piperidyl]-2-methyl-propan-1-one] | 300 to 3000 | < 300 | 3000 to 50000 |
| C[C@@](O)(C(=O)N1CCC(c2ccnn2-c2ccc(C(F)(F)F)nc2)CC1)C(F)(F)F [Compound A80, (R)-3,3,3-Trifluoro-2-hydroxy-2-methyl-1-[4-[2-[6-(trifluoromethyl)-3-pyridyl]-2H-pyrazol-3-yl]-1-piperidyl]propan-1-one] | 300 to 3000 | < 300 | 3000 to 50000 |
| C[C@@](O)(C(=O)N1CCC(c2ccnn2-c2ncc(F)cc2F)CC1)C(F)(F)F [Compound A82, (R)-1-[4-[2-(3,5-Difluoro-2-pyridyl)-2H-pyrazol-3-yl]-1-piperidyl]-3,3,3-trifluoro-2-hydroxy-2-methyl-propan-1-one] | < 300 | < 300 | 300 to 3000 |
| Cc1ccc(-n2nccc2C2CCN(C(=O)[C@@](C)(O)C(F)(F)F)CC2)nc1 [Compound A83, (R)-3,3,3-Trifluoro-2-hydroxy-2-methyl-1-{4-[2-(5-methyl-pyridin-2-yl)-2H-pyrazol-3-yl]-piperidin-1-yl}-propan-1-one] | 300 to 3000 | < 300 | 300 to 3000 |
